Test results taken from ChEMBL document CHEMBL5291721, “A preclinical secondary pharmacology resource illuminates target-adverse drug reaction associations of marketed drugs” (Nat Commun, 2023).

Assays:
Estrogen receptor beta = Estrogen receptor beta (Homo sapiens, UniProt Q92731)
[1] = target: T1, Alpha-1A adrenergic receptor (Homo sapiens, UniProt P35348)
T1 sequence (P35348 whole entry): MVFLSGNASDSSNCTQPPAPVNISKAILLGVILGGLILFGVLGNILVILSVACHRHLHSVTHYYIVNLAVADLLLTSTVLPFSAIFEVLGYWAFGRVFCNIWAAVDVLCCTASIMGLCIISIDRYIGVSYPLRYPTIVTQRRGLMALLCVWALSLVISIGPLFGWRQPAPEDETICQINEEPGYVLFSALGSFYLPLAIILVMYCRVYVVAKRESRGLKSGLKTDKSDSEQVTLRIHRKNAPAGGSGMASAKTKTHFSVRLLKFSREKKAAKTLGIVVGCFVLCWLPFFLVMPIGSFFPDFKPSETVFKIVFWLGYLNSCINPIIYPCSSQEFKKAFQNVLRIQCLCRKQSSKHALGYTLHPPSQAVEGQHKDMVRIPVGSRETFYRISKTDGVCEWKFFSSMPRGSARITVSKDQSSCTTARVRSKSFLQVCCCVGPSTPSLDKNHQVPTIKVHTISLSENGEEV

Substance-P receptor = Substance-P receptor (Homo sapiens, UniProt P25103)
Sequence of Substance-P receptor (P25103 whole entry): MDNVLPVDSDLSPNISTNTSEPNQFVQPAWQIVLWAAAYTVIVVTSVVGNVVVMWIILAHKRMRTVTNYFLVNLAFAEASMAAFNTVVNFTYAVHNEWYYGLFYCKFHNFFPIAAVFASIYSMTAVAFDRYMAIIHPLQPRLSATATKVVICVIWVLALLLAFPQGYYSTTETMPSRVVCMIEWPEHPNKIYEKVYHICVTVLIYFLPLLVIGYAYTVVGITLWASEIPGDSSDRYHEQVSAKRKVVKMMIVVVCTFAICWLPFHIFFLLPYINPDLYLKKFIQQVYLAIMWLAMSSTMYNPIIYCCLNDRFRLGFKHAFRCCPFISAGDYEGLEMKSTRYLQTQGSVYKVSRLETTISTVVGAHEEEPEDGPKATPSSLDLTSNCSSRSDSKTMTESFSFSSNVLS

D(4) dopamine receptor = target: T2, D(4) dopamine receptor (Homo sapiens, UniProt P21917)
T2 sequence (P21917 whole entry): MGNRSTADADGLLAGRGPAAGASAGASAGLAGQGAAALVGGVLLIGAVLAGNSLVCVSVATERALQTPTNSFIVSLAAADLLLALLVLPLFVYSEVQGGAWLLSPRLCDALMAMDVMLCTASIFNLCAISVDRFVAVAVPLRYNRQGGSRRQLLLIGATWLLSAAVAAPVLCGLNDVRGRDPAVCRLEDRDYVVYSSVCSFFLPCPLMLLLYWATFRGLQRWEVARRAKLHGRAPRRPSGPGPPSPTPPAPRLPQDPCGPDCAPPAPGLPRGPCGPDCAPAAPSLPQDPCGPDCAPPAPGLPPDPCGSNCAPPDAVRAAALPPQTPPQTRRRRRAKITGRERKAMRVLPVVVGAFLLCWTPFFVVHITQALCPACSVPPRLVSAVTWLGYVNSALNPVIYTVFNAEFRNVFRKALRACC

[2] = target: Hydroxycarboxylic acid receptor 2 (Homo sapiens, UniProt Q8TDS4)
Sequence of Hydroxycarboxylic acid receptor 2 (Q8TDS4 whole entry): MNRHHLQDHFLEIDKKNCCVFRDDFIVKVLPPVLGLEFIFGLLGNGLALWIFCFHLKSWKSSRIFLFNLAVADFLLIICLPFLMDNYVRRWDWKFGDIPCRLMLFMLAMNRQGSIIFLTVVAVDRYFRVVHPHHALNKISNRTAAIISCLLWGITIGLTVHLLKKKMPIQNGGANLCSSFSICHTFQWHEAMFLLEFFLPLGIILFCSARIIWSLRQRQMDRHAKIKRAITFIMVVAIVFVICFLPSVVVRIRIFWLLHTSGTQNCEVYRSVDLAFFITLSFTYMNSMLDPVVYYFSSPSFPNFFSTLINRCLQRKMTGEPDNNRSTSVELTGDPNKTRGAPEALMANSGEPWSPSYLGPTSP

[3] = target: 5-hydroxytryptamine receptor 6 (Homo sapiens, UniProt P50406)
Sequence of 5-hydroxytryptamine receptor 6 (P50406 whole entry): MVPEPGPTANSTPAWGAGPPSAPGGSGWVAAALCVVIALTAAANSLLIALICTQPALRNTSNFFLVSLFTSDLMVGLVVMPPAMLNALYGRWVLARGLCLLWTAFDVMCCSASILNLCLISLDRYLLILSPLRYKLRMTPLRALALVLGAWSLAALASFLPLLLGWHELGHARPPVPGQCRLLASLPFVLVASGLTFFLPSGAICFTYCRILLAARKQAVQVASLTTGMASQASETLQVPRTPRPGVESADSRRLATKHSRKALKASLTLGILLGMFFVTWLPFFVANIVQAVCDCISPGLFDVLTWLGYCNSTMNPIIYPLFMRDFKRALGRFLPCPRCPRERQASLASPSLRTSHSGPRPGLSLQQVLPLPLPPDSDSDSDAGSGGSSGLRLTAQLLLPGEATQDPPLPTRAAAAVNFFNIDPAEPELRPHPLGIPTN

[4] = target: 5-hydroxytryptamine receptor 7 (Homo sapiens, UniProt P34969)
Sequence of 5-hydroxytryptamine receptor 7 (P34969 whole entry): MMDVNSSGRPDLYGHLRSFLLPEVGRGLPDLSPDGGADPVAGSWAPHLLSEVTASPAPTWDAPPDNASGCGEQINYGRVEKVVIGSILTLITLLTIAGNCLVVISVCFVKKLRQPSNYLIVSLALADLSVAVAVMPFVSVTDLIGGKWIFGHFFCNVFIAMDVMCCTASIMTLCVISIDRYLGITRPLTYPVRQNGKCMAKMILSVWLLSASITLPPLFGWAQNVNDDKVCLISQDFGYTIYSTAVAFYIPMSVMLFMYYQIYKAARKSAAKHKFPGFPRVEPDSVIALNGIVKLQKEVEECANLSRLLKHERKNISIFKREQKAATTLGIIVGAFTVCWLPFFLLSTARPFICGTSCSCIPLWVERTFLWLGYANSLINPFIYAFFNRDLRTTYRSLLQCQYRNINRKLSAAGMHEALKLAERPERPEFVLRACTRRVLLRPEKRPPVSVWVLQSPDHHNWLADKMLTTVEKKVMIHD

Cannabinoid receptor 1 = Cannabinoid receptor 1 (Homo sapiens, UniProt P21554); format: functional
Sequence of Cannabinoid receptor 1 (P21554 whole entry): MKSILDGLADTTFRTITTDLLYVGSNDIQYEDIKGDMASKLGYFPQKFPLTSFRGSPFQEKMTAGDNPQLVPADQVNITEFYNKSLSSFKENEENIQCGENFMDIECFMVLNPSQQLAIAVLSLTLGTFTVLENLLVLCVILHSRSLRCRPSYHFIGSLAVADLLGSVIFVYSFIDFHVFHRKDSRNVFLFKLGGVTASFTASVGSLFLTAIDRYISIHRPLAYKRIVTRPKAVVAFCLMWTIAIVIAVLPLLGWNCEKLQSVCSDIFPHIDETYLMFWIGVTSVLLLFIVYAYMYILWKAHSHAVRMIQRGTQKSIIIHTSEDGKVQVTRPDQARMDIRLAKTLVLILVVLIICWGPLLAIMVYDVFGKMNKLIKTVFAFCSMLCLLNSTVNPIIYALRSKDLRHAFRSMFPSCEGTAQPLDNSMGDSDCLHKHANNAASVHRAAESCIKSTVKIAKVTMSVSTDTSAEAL

Glucocorticoid receptor = target: T3, Glucocorticoid receptor (Homo sapiens, UniProt P04150); format: functional
T3 sequence (P04150 whole entry): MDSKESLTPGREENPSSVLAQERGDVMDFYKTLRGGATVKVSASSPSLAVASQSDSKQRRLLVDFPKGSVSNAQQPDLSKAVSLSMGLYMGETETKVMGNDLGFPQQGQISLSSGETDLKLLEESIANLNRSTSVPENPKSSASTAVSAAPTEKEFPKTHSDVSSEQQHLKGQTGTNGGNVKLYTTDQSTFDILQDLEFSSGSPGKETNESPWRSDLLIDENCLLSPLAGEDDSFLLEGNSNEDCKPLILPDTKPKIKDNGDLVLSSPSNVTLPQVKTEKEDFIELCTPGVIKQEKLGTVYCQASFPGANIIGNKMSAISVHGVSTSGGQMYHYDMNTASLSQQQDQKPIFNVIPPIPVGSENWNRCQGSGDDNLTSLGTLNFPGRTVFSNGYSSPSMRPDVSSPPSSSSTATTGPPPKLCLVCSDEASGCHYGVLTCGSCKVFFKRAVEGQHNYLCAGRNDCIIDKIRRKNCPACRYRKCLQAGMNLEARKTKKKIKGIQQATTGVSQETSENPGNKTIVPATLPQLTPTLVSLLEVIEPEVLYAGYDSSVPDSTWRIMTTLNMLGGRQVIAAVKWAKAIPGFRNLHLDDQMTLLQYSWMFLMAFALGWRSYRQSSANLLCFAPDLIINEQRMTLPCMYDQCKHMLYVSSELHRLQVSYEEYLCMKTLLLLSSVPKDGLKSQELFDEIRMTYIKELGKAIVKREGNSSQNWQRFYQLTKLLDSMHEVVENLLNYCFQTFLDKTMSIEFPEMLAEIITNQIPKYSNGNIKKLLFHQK

Estrogen receptor [5] = target: T4, Estrogen receptor (Homo sapiens, UniProt P03372); format: functional
T4 sequence (P03372 whole entry): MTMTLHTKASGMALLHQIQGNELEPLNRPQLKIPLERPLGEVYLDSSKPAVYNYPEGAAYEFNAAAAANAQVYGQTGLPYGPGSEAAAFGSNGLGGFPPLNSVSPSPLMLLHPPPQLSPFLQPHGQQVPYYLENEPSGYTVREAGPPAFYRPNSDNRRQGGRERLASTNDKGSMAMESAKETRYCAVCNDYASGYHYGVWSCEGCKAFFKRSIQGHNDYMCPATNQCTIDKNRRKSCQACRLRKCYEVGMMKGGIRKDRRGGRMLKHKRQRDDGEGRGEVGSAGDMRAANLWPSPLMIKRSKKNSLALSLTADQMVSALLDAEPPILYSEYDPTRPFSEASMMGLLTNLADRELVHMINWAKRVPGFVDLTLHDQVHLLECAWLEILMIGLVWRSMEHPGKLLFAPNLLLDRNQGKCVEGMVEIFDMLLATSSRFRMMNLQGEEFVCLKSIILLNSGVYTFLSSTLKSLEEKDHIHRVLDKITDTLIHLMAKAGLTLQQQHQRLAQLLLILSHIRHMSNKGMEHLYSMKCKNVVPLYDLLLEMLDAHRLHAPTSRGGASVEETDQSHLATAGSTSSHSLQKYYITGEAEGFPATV

Thromboxane A2 receptor = target: T5, Thromboxane A2 receptor (Homo sapiens, UniProt P21731); format: functional
T5 sequence (P21731 whole entry): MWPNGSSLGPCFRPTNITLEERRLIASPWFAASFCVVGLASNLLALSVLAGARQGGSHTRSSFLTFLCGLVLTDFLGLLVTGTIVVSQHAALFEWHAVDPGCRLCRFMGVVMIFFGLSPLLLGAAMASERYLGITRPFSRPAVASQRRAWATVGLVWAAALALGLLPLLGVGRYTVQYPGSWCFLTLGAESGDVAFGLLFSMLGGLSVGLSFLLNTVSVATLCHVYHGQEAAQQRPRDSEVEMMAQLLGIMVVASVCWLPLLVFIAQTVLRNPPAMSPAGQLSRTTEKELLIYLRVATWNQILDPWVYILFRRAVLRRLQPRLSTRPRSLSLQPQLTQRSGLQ

Estrogen receptor [6] = target: T4, Estrogen receptor; format: functional; remark: listed apart in the source
Note: assay procedure not described here.

Sequence of Estrogen receptor beta (Q92731 whole entry): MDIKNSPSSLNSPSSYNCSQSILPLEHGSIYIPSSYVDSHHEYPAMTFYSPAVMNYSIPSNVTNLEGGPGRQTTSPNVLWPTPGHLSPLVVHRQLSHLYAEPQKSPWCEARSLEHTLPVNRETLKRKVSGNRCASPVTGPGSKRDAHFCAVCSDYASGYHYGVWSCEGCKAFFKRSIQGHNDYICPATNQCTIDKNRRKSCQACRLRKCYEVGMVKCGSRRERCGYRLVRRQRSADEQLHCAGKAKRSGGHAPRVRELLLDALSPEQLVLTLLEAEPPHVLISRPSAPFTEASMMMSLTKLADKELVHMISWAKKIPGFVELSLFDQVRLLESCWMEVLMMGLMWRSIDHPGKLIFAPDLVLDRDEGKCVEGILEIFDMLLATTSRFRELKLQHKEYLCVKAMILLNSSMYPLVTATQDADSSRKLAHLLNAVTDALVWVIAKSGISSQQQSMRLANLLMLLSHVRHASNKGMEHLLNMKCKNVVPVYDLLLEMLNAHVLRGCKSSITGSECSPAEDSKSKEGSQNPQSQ

Compound | AC50 (Estrogen receptor beta) [µM] | AC50 (Substance-P receptor) [µM] | AC50 (D(4) dopamine receptor) [µM] | AC50 (Glucocorticoid receptor) [µM] | AC50 (Estrogen receptor [5]) [µM] | AC50 (Estrogen receptor [6]) [µM] | further results
CC[C@@H](CO)NC(=O)[C@@H]1C=C2c3cccc4c3c(cn4C)C[C@H]2N(C)C1 [METHYSERGIDE] | 24.5 |  |  |  |  |  | 
CN[C@@H]1[C@H](O[C@H]2[C@H](O[C@H]3[C@H](O)[C@@H](O)[C@H](NC(=N)N)[C@@H](O)[C@@H]3NC(=N)N)O[C@@H](C)[C@]2(O)CO)O[C@@H](CO)[C@H](O)[C@H]1O [DIHYDROSTREPTOMYCIN] |  |  |  |  |  |  | AC50 [1]: > 30 µM
CC(C)[C@H](N)C(=O)OCCOCn1cnc2c(=O)[nH]c(N)nc21 [VALACYCLOVIR] | > 30 | > 10 | > 10 |  |  |  | AC50 [2]: > 10 µM
O=C(O)Cc1ccccc1Nc1c(Cl)cccc1Cl [DICLOFENAC] | > 30 | > 10 | > 10 |  |  |  | AC50 [3]: > 10 µM; AC50 [4]: > 10 µM; AC50 (Cannabinoid receptor 1): > 10 µM
C[C@]12C=CC(=O)C=C1CC[C@H]1[C@@H]3C[C@@H](O)[C@](O)(C(=O)CO)[C@@]3(C)C[C@H](O)[C@@]12F [TRIAMCINOLONE] |  |  |  | > 30 |  |  | 
CC(C)(O/N=C(\C(=O)N[C@@H]1C(=O)N2C(C(=O)[O-])=C(C[n+]3ccccc3)CS[C@H]12)c1csc(N)n1)C(=O)O [CEFTAZIDIME] |  |  |  | > 300 | 48 | > 300 | AC50 (Thromboxane A2 receptor): > 300 µM
O=C1Cc2cc(CCN3CCN(c4nsc5ccccc45)CC3)c(Cl)cc2N1 [ZIPRASIDONE] | > 30 |  |  |  |  |  | AC50 [2]: > 10 µM
CN(CCOc1ccc(CC2SC(=O)NC2=O)cc1)c1ccccn1 (stereo not given) [ROSIGLITAZONE] | > 30 | > 10 | > 10 |  |  |  | AC50 [3]: > 10 µM; AC50 [4]: > 10 µM; AC50 (Cannabinoid receptor 1): > 10 µM
Cc1nnc(SCC2=C(C(=O)O)N3C(=O)[C@@H](NC(=O)Cn4cnnn4)[C@H]3SC2)s1 [CEFAZOLIN] |  |  |  |  | > 300 | > 300 | AC50 (Thromboxane A2 receptor): > 300 µM
Clc1ccc(Cn2c(CN3CCCC3)nc3ccccc32)cc1 [CLEMIZOLE] |  |  |  | > 30 |  |  | AC50 (Thromboxane A2 receptor): > 10 µM
Cc1onc(-c2c(F)cccc2Cl)c1C(=O)N[C@@H]1C(=O)N2[C@@H]1SC(C)(C)[C@@H]2C(=O)O [FLOXACILLIN] |  |  |  | > 30 |  |  | AC50 (Thromboxane A2 receptor): > 30 µM
CC(C)Cc1ccc([C@H](C)C(=O)O)cc1 [DEXIBUPROFEN] |  |  |  | > 30 | > 30 | > 30 | 
O=C(O)Cc1ccccc1Oc1ccc(Cl)cc1Cl [FENCLOFENAC] |  | > 10 | > 10 |  |  |  | AC50 [2]: > 10 µM
S=P(N1CC1)(N1CC1)N1CC1 [THIOTEPA] |  |  |  | > 30 | > 30 | > 30 | AC50 (Thromboxane A2 receptor): > 10 µM
CCC(=O)O[C@]1(C(=O)CCl)[C@@H](C)C[C@H]2[C@@H]3CCC4=CC(=O)C=C[C@]4(C)[C@@]3(F)[C@@H](O)C[C@@]21C [CLOBETASOL PROPIONATE] |  |  |  |  | > 30 | > 30 | 
CCCc1nc2c(C)cc(-c3nc4ccccc4n3C)cc2n1Cc1ccc(-c2ccccc2C(=O)O)cc1 | > 30 | > 10 | > 10 | > 30 | > 30 | > 30 | AC50 [3]: > 10 µM; AC50 [4]: > 10 µM; AC50 (Cannabinoid receptor 1): > 10 µM
CCOc1cc([C@@H](CS(C)(=O)=O)N2C(=O)c3cccc(NC(C)=O)c3C2=O)ccc1OC |  |  |  | > 30 | > 30 | > 30 | AC50 (Thromboxane A2 receptor): > 30 µM
CNC[C@H](O)c1ccc(O)c(O)c1 [EPINEPHRINE] |  |  |  |  | > 30 | > 30 | 
C#C[C@]1(O)C=C[C@H]2[C@@H]3CCC4=CC(=O)CC[C@@H]4[C@H]3CC[C@@]21CC [GESTODENE] |  |  |  |  |  |  | AC50 [1]: > 30 µM
CCOc1nc2cccc(C(=O)O)c2n1Cc1ccc(-c2ccccc2-c2nnn[nH]2)cc1 | > 30 | > 10 | > 10 | > 30 | > 30 | > 30 | AC50 [3]: > 10 µM; AC50 [4]: > 10 µM; AC50 (Cannabinoid receptor 1): > 10 µM
Cc1nc(Nc2ncc(C(=O)Nc3c(C)cccc3Cl)s2)cc(N2CCN(CCO)CC2)n1 [DASATINIB] |  |  | > 10 |  |  |  | AC50 [3]: > 10 µM; AC50 (Cannabinoid receptor 1): > 10 µM
Nc1c(CC(=O)O)cccc1C(=O)c1ccc(Br)cc1 [BROMFENAC] |  |  |  |  |  |  | AC50 [1]: > 30 µM
Cc1ccc(C)c(OCCCC(C)(C)C(=O)O)c1 [GEMFIBROZIL] | > 30 | > 10 | > 10 |  |  |  | AC50 [2]: > 10 µM
CCCNC(=O)NS(=O)(=O)c1ccc(Cl)cc1 [CHLORPROPAMIDE] | > 30 |  |  |  |  |  | 
COc1cc(C(C)=O)ccc1OCCCN1CCC(c2noc3cc(F)ccc23)CC1 [ILOPERIDONE] |  | > 10 | 0.0209 | > 30 | > 30 | > 30 | AC50 [3]: 0.257 µM
COc1cc(C(=O)NS(=O)(=O)c2ccccc2C)ccc1Cc1cn(C)c2ccc(NC(=O)OC3CCCC3)cc12 [ZAFIRLUKAST] |  |  |  | > 30 |  |  | 
CC(C)NC(=N)NC(=N)Nc1ccc(Cl)c(Cl)c1 [CHLORPROGUANIL] |  |  |  |  |  |  | AC50 [1]: 2.74 µM
CC(CN1c2ccccc2Sc2ccccc21)N(C)C (stereo not given) [PROMETHAZINE] | > 30 | > 10 |  |  |  |  | AC50 [1]: 0.03 µM; AC50 [2]: > 10 µM
CC[C@H](C)C(=O)O[C@H]1C[C@@H](C)C=C2C=C[C@H](C)[C@H](CC[C@@H]3C[C@@H](O)CC(=O)O3)[C@H]21 [LOVASTATIN] | > 30 | > 10 | > 10 |  |  |  | AC50 [2]: > 10 µM
CC(C)C[C@H](NC(=O)[C@@H](O)[C@H](N)Cc1ccccc1)C(=O)O [UBENIMEX] |  |  |  |  |  |  | AC50 [1]: > 30 µM
